Results as given in ChEMBL document CHEMBL3611969, “The effect of complexation of 3-formylrifamycin SV macrocyclic ether derivatives with metal cations and small nitrogen-containing organic molecules on antibacterial activity against S. aureus and S. epidermidis” (Bioorg Med Chem Lett, 2015).
≈ marks a conversion by molar mass, not a printed value.

Legend:
Staphylococcus aureus [1] = experiment: Antibacterial activity against Staphylococcus aureus ATCC 6538 after 18 hrs by serial microdilution method; type: functional; conditions: ATCC 6538, 18 h
Staphylococcus aureus [2] = experiment: Antibacterial activity against Staphylococcus aureus ATCC 6538 after 18 hrs by serial microdilution method in presence of Li+; type: functional; conditions: ATCC 6538, 18 h
Staphylococcus aureus [3] = experiment: Antibacterial activity against Staphylococcus aureus ATCC 6538 after 18 hrs by serial microdilution method in presence of Na+; type: functional; conditions: ATCC 6538, 18 h
Staphylococcus aureus [4] = experiment: Antibacterial activity against Staphylococcus aureus ATCC 4163 after 18 hrs by serial microdilution method; type: functional; conditions: ATCC 4163, 18 h
Staphylococcus aureus [5] = experiment: Antibacterial activity against Staphylococcus aureus ATCC 4163 after 18 hrs by serial microdilution method in presence of Li+; type: functional; conditions: ATCC 4163, 18 h
Staphylococcus aureus [6] = experiment: Antibacterial activity against Staphylococcus aureus ATCC 4163 after 18 hrs by serial microdilution method in presence of Na+; type: functional; conditions: ATCC 4163, 18 h
Staphylococcus aureus [7] = experiment: Antibacterial activity against Staphylococcus aureus ATCC 25923 after 18 hrs by serial microdilution method; type: functional; conditions: ATCC 25923, 18 h
Staphylococcus aureus [8] = experiment: Antibacterial activity against Staphylococcus aureus ATCC 25923 after 18 hrs by serial microdilution method in presence of Li+; type: functional; conditions: ATCC 25923, 18 h
Staphylococcus aureus [9] = experiment: Antibacterial activity against Staphylococcus aureus ATCC 25923 after 18 hrs by serial microdilution method in presence of Na+; type: functional; conditions: ATCC 25923, 18 h
[10] = system: Staphylococcus epidermidis; experiment: Antibacterial activity against Staphylococcus epidermidis ATCC 12228 after 18 hrs by serial microdilution method; type: functional; conditions: ATCC 12228, 18 h
[11] = system: Staphylococcus epidermidis; experiment: Antibacterial activity against Staphylococcus epidermidis ATCC 12228 after 18 hrs by serial microdilution method in presence of Li+; type: functional; conditions: ATCC 12228, 18 h
[12] = system: Staphylococcus epidermidis; experiment: Antibacterial activity against Staphylococcus epidermidis ATCC 12228 after 18 hrs by serial microdilution method in presence of Na+; type: functional; conditions: ATCC 12228, 18 h
[13] = system: Staphylococcus epidermidis; experiment: Antibacterial activity against Staphylococcus epidermidis ATCC 49134 after 18 hrs by serial microdilution method; type: functional; conditions: ATCC 49134, 18 h
[14] = system: Staphylococcus epidermidis; experiment: Antibacterial activity against Staphylococcus epidermidis ATCC 49134 after 18 hrs by serial microdilution method in presence of Li+; type: functional; conditions: ATCC 49134, 18 h
[15] = system: Staphylococcus epidermidis; experiment: Antibacterial activity against Staphylococcus epidermidis ATCC 49134 after 18 hrs by serial microdilution method in presence of Na+; type: functional; conditions: ATCC 49134, 18 h
[16] = Solubility of the compound in water at pH 7; type: physicochemical
[17] = Octanol-water partition coefficient, log P of the compound by UV-vis method; type: physicochemical
[18] = Solubility of the compound in water at pH 7 in presence of Li+; type: physicochemical
[19] = Solubility of the compound in water at pH 7 in presence of Na+; type: physicochemical
[20] = Octanol-water partition coefficient, log P of the compound by UV-vis method in presence of Li+; type: physicochemical
[21] = Octanol-water partition coefficient, log P of the compound by UV-vis method in presence of Na+; type: physicochemical
Staphylococcus aureus [22] = experiment: Antibacterial activity against Staphylococcus aureus ATCC 6538 after 18 hrs by serial microdilution method in presence of isoniazid; type: functional; conditions: ATCC 6538, 18 h
Staphylococcus aureus [23] = experiment: Antibacterial activity against Staphylococcus aureus ATCC 6538 after 18 hrs by serial microdilution method in presence of 2-chlorobenzylamine; type: functional; conditions: ATCC 6538, 18 h
Staphylococcus aureus [24] = experiment: Antibacterial activity against Staphylococcus aureus ATCC 6538 after 18 hrs by serial microdilution method in presence of 4-fluorobenzylamine; type: functional; conditions: ATCC 6538, 18 h
Staphylococcus aureus [25] = experiment: Antibacterial activity against Staphylococcus aureus ATCC 6538 after 18 hrs by serial microdilution method in presence of histamine; type: functional; conditions: ATCC 6538, 18 h
Staphylococcus aureus [26] = experiment: Antibacterial activity against Staphylococcus aureus ATCC 4163 after 18 hrs by serial microdilution method in presence of 2-chlorobenzylamine; type: functional; conditions: ATCC 4163, 18 h
Staphylococcus aureus [27] = experiment: Antibacterial activity against Staphylococcus aureus ATCC 4163 after 18 hrs by serial microdilution method in presence of 4-fluorobenzylamine; type: functional; conditions: ATCC 4163, 18 h
Staphylococcus aureus [28] = experiment: Antibacterial activity against Staphylococcus aureus ATCC 4163 after 18 hrs by serial microdilution method in presence of isoniazid; type: functional; conditions: ATCC 4163, 18 h
Staphylococcus aureus [29] = experiment: Antibacterial activity against Staphylococcus aureus ATCC 4163 after 18 hrs by serial microdilution method in presence of histamine; type: functional; conditions: ATCC 4163, 18 h
Staphylococcus aureus [30] = experiment: Antibacterial activity against Staphylococcus aureus ATCC 25923 after 18 hrs by serial microdilution method in presence of 2-chlorobenzylamine; type: functional; conditions: ATCC 25923, 18 h
Staphylococcus aureus [31] = experiment: Antibacterial activity against Staphylococcus aureus ATCC 25923 after 18 hrs by serial microdilution method in presence of 4-fluorobenzylamine; type: functional; conditions: ATCC 25923, 18 h
Staphylococcus aureus [32] = experiment: Antibacterial activity against Staphylococcus aureus ATCC 25923 after 18 hrs by serial microdilution method in presence of isoniazid; type: functional; conditions: ATCC 25923, 18 h
Staphylococcus aureus [33] = experiment: Antibacterial activity against Staphylococcus aureus ATCC 25923 after 18 hrs by serial microdilution method in presence of histamine; type: functional; conditions: ATCC 25923, 18 h
[34] = system: Staphylococcus epidermidis; experiment: Antibacterial activity against Staphylococcus epidermidis ATCC 12228 after 18 hrs by serial microdilution method in presence of 2-chlorobenzylamine; type: functional; conditions: ATCC 12228, 18 h
[35] = system: Staphylococcus epidermidis; experiment: Antibacterial activity against Staphylococcus epidermidis ATCC 12228 after 18 hrs by serial microdilution method in presence of 4-fluorobenzylamine; type: functional; conditions: ATCC 12228, 18 h
[36] = system: Staphylococcus epidermidis; experiment: Antibacterial activity against Staphylococcus epidermidis ATCC 12228 after 18 hrs by serial microdilution method in presence of isoniazid; type: functional; conditions: ATCC 12228, 18 h
[37] = system: Staphylococcus epidermidis; experiment: Antibacterial activity against Staphylococcus epidermidis ATCC 12228 after 18 hrs by serial microdilution method in presence of histamine; type: functional; conditions: ATCC 12228, 18 h
[38] = system: Staphylococcus epidermidis; experiment: Antibacterial activity against Staphylococcus epidermidis ATCC 49134 after 18 hrs by serial microdilution method in presence of 2-chlorobenzylamine; type: functional; conditions: ATCC 49134, 18 h
[39] = system: Staphylococcus epidermidis; experiment: Antibacterial activity against Staphylococcus epidermidis ATCC 49134 after 18 hrs by serial microdilution method in presence of 4-fluorobenzylamine; type: functional; conditions: ATCC 49134, 18 h
[40] = system: Staphylococcus epidermidis; experiment: Antibacterial activity against Staphylococcus epidermidis ATCC 49134 after 18 hrs by serial microdilution method in presence of isoniazid; type: functional; conditions: ATCC 49134, 18 h
[41] = system: Staphylococcus epidermidis; experiment: Antibacterial activity against Staphylococcus epidermidis ATCC 49134 after 18 hrs by serial microdilution method in presence of histamine; type: functional; conditions: ATCC 49134, 18 h
[42] = Solubility of the compound in water at pH 7 in presence of histamine; type: physicochemical
[43] = Octanol-water partition coefficient, log P of the compound by UV-vis method in presence of histamine; type: physicochemical

CO[C@H]1/C=C/O[C@@]2(C)Oc3c(C)c(O)c4c(O)c(c(CNCC5COCCOCCOCCOCCOCCO5)c(O)c4c3C2=O)NC(=O)/C(C)=C\C=C\[C@H](C)[C@H](O)[C@@H](C)[C@@H](O)[C@@H](C)[C@H](OC(C)=O)[C@@H]1C (some centres not stated)
MIC (Staphylococcus aureus [1]): 1 µg/mL (≈ 0.997 µM) | MIC (Staphylococcus aureus [2]): 1 µg/mL | MIC (Staphylococcus aureus [3]): 2 µg/mL | MIC (Staphylococcus aureus [4]): 1 µg/mL (≈ 0.997 µM) | MIC (Staphylococcus aureus [5]): 1 µg/mL | MIC (Staphylococcus aureus [6]): 2 µg/mL | MIC (Staphylococcus aureus [7]): 2 µg/mL (≈ 1.99 µM) | MIC (Staphylococcus aureus [8]): 2 µg/mL | MIC (Staphylococcus aureus [9]): 2 µg/mL | MIC [10]: 1 µg/mL (≈ 0.997 µM) | MIC [11]: 1 µg/mL | MIC [12]: 1 µg/mL | MIC [13]: 1 µg/mL (≈ 0.997 µM) | MIC [14]: 1 µg/mL | MIC [15]: 1 µg/mL | solubility [16]: 1000 µg/mL (≈ 997 µM) | logP [17]: 1.76 | solubility [18]: 670 µg/mL | solubility [19]: 600 µg/mL | logP [20]: 1.09 | logP [21]: 1.13

CO[C@H]1/C=C/O[C@@]2(C)Oc3c(C)c(O)c4c(O)c(c(CNCC5COCCOCCOCCOCCO5)c(O)c4c3C2=O)NC(=O)/C(C)=C\C=C\[C@H](C)[C@H](O)[C@@H](C)[C@@H](O)[C@@H](C)[C@H](OC(C)=O)[C@@H]1C (some centres not stated)
MIC (Staphylococcus aureus [1]): 2 µg/mL (≈ 2.09 µM) | MIC (Staphylococcus aureus [2]): > 4 µg/mL | MIC (Staphylococcus aureus [3]): 2 µg/mL | MIC (Staphylococcus aureus [4]): 4 µg/mL (≈ 4.17 µM) | MIC (Staphylococcus aureus [5]): 4 µg/mL | MIC (Staphylococcus aureus [6]): > 4 µg/mL | MIC (Staphylococcus aureus [7]): > 4 µg/mL | MIC (Staphylococcus aureus [8]): > 4 µg/mL | MIC (Staphylococcus aureus [9]): > 4 µg/mL | MIC [10]: 2 µg/mL (≈ 2.09 µM) | MIC [11]: 2 µg/mL | MIC [12]: 4 µg/mL | MIC [13]: 2 µg/mL (≈ 2.09 µM) | MIC [14]: 2 µg/mL | MIC [15]: 4 µg/mL | solubility [16]: 120 µg/mL (≈ 125 µM) | logP [17]: 1.18

CO[C@H]1/C=C/O[C@@]2(C)Oc3c(C)c(O)c4c(O)c(c(CNc5ccc6c(c5)OCCOCCOCCOCCOCCO6)c(O)c4c3C2=O)NC(=O)/C(C)=C\C=C\[C@H](C)[C@H](O)[C@@H](C)[C@@H](O)[C@@H](C)[C@H](OC(C)=O)[C@@H]1C
MIC (Staphylococcus aureus [1]): 2 µg/mL (≈ 1.93 µM) | MIC (Staphylococcus aureus [22]): 1 µg/mL | MIC (Staphylococcus aureus [23]): 0.25 µg/mL | MIC (Staphylococcus aureus [24]): 0.25 µg/mL | MIC (Staphylococcus aureus [25]): 0.125 µg/mL | MIC (Staphylococcus aureus [4]): 2 µg/mL (≈ 1.93 µM) | MIC (Staphylococcus aureus [26]): 0.25 µg/mL | MIC (Staphylococcus aureus [27]): 0.25 µg/mL | MIC (Staphylococcus aureus [28]): 1 µg/mL | MIC (Staphylococcus aureus [29]): 0.125 µg/mL | MIC (Staphylococcus aureus [7]): 2 µg/mL (≈ 1.93 µM) | MIC (Staphylococcus aureus [30]): 0.25 µg/mL | MIC (Staphylococcus aureus [31]): 0.25 µg/mL | MIC (Staphylococcus aureus [32]): 1 µg/mL | MIC (Staphylococcus aureus [33]): 0.125 µg/mL | MIC [10]: 0.5 µg/mL (≈ 0.482 µM) | MIC [34]: 0.25 µg/mL | MIC [35]: 0.25 µg/mL | MIC [36]: 0.5 µg/mL | MIC [37]: 1.25 µg/mL | MIC [13]: 0.5 µg/mL (≈ 0.482 µM) | MIC [38]: 0.25 µg/mL | MIC [39]: 0.25 µg/mL | MIC [40]: 0.5 µg/mL | MIC [41]: 0.125 µg/mL | solubility [16]: 110 µg/mL (≈ 106 µM) | logP [17]: 0.53 | solubility [42]: 410 µg/mL | logP [43]: 0.69
